Read-outs that look alike come from different tables or passages of the source. Each block holds one compound with its values, some of them ahead of it.
How the values were obtained:
[1] = 40° C., cited from earlier work
[2] = Retinoid degradation in the presence of BPO; format: physicochemical
Description: Another technical problem to be solved for the formulation of a composition comprising both adapalene and BPO is the chemical and physical compatibility of these compounds within the same formulation provided that common retinoids are natural oxidization sensitive, visible light and ultra violet sensitive and BPO being a strong oxidizing agent.
Indeed, BPO triggers rapidly degradation of natural oxidization sensitive retinoids: 50% of tretinoine is degraded within 2 hours and 95% is degraded within 24 hours.

SMILES: O=C(OOC(=O)c1ccccc1)c1ccccc1 [BPO, benzoyl peroxide]
BPO degradation time ([1]; in PEG 400 (0.5 mg/g)): 14 days
BPO degradation time ([1]; in ethanol): 29 days
BPO degradation time ([1]; in propylene glycol): 53 days

adapalene degradation in the composition with BPO ([2]; within 24 hours): no adapalene degradation
SMILES: COc1ccc(-c2ccc3cc(C(=O)O)ccc3c2)cc1C12CC3CC(CC(C3)C1)C2 [adapalene, 6-[3-(1-adamantyl)-4-methoxyphenyl]-2-naphthoic acid]

retinoid degraded in the presence of BPO ([2]; within 2 hours): 50%
retinoid degraded in the presence of BPO ([2]; within 24 hours): 95%
SMILES: CC1=C(/C=C/C(C)=C/C=C/C(C)=C/C(=O)O)C(C)(C)CCC1 [tretinoine]

Reference: patent publication US20170216235A1, “ADMINISTRATION OF ADAPALENE AND BENZOYL PEROXIDE FOR THE LONG-TERM TREATMENT OF ACNE VULGARIS” (GALDERMA RESEARCH & DEVELOPMENT, priority 2007, published 2017)
